Measured values: patent US9943398B2, “Increasing survival of free tissue grafts and flaps using phosphodiesterase type 5 (PDE5) inhibitors” (New York University, priority 2012, dated 2018)

Tests used:
Format in all cases: in vivo, mice
[1] = test system: explanted fat grafts (Tie2/LacZ donor, wild type FVB recipient); assay: Quantitative PCR of 2-day old explanted fat grafts after sildenafil pretreatment of donor tissue; conditions: qPCR
Experimental: (§1) To examine the effect of PDE5 inhibitor pretreatment of donor graft tissue on graft take and survival, transfer of syngeneic fat between Tie2/LacZ mice (donor) and wild type FVB mice (recipient) was performed. A schematic representation of the protocol is depicted in FIG. 1A. Since the transgenic mice express the lacZ gene in their blood vessels, donor and recipient vasculature can be independently visualized and assessed based on the presence or absence of lacZ gene expression.
Prior to harvesting the inguinal fat pads from 6-12 week old transgenic FVB Tie2/LacZ mice, the pads were infiltrated with small volumes of PBS (control) and 35 nM sildenafil citrate in PBS and allowed to dwell for 15-20 minutes. The pads were harvested, washed in PBS, and finely minced to simulate conditions of human harvest. The minced fat was centrifuged at 3000 rpm for 3 minutes and the aqueous and oil layers removed leaving the adipose layer for injection. The dorsum of syngeneic wildtype FVB mice was used as the recipient bed for the processed lipoaspirate, as previously described (Sultan et al., “Human Fat Grafting Alleviates Radiation Skin Damage in a Murine Model,” Plast Reconstr Surg 128:363-72 (2011) and Thanik et al., “A Murine Model for Studying Diffusely Injected Human Fat,” Plast Reconstr Surg 124:74-81 (2009), which are hereby incorporated by reference in their entirety). Autologous fat was infiltrated using a blunt tip cannula through a 2-mm caudal midline incision. The infiltration cannula was advanced and withdrawn in a fan like pattern in the dorsal subdermal plane of the mouse, to maintain an even layer over the entire dorsal surface.

[2] = test system: fat grafts; assay: Graft weight retention of explanted fat grafts; conditions: 8 weeks post transplant
Experimental: as §1
(§2) Prior to harvesting the inguinal fat pads from 6-12 week old transgenic FVB Tie2/LacZ mice, the pads were infiltrated with small volumes of PBS (control) and 35 nM sildenafil citrate in PBS and allowed to dwell for 15-20 minutes. The pads were harvested, washed in PBS, and finely minced to simulate conditions of human harvest. The minced fat was centrifuged at 3000 rpm for 3 minutes and the aqueous and oil layers removed leaving the adipose layer for injection. The dorsum of syngeneic wildtype FVB mice was used as the recipient bed for the processed lipoaspirate, as previously described (Sultan et al., “Human Fat Grafting Alleviates Radiation Skin Damage in a Murine Model,” Plast Reconstr Surg 128:363-72 (2011) and Thanik et al., “A Murine Model for Studying Diffusely Injected Human Fat,” Plast Reconstr Surg 124:74-81 (2009), which are hereby incorporated by reference in their entirety). […]

[3] = test system: fat grafts; assay: Graft volume maintenance and graft survival analysis after fat transfer
Experimental: as §1, §2

[4] = test system: fat grafts; assay: Vascular flux (Doppler) in grafted fat tissue after transplantation
Experimental: as §1, §2

[5] = 2-day old explanted grafts, 35 nM sildenafil citrate pretreatment vs PBS/saline control
[6] = explanted tissue, sildenafil pretreatment vs saline control

CCCc1nn(C)c2c(=O)nc(-c3cc(S(=O)(=O)N4CCN(C)CC4)ccc3OCC)[nH]c12 [sildenafil, 5-{2-Ethoxy-5-[(4-methyl-1-piperazinyl)sulfonyl]phenyl}-1-methyl-3-propyl-1,4-dihydro-7H-pyrazolo[4,3-d]pyrimidin-7-one 2-hydroxy-1,2,3-propanetricarboxylate (1:1)]
LacZ expression (donor-derived endothelial cell function/viability) [1, 5]: increased
PECAM-1 expression (donor-derived endothelial cell function/viability) [1, 5]: increased
expression of the inflammatory gene SDF-1α [1, 6]: decreased
expression of the inflammatory gene VCAM [1, 6]: decreased
enhanced graft retention (percent graft weight retention) compared to saline treated grafts [2]: > 2 fold
graft tissue volume after transfer ([3]; over 12 weeks after transfer, vs saline treated grafts, which are resorbed quickly): maintained virtually all of its volume over time
graft survival ([3]; survival analysis vs saline-treated control grafts and devascularized (trypsin-inactivated) grafts): survive significantly longer
revascularization within the core of the graft ([4]; 1 and 2 weeks post grafting, vs control): significant improvement in revascularization
restoration of blood flow within the grafted tissues (vascular flux) ([4]; first two weeks following transplantation, vs saline control): faster restoration of blood flow
